Reference: PubChem BioAssay AID1963423 (Molecular Pharmacology Branch, DTP, NCI, 2024)

Test system: 439559-082-T-J2-PDC complex spheroid growth
Test: Anticancer human tumor 439559-082-T-J2-PDC patient-derived colon adenocarcinoma cell line growth inhibition [Asc]
Conditions: for IC50: curve of first compound; for viability, T/C: stronger effect = lower value
Experimental: Multicellular complex tumor spheroid response to apoptosis pathway targeting inhibitors Alrizomadlin, Pelcitoclax, and Dasminapant in combination with a variety of drugs and investigational agents in selected tumor cell lines
The MDM2 inhibitor alrizomadlin, the Bcl-2/Bcl-xL inhibitor pelcitoclax, and the IAPs inhibitor dasminapant were evaluated both individually and in combination with standard of care and investigational anticancer small molecules within a complex spheroid model of solid tumors. . Complex spheroids include a stromal component modeled by human endothelial cells (HUVEC) and fibroblasts modeled by human mesenchymal stem cells (MSCs). The concentration ranges selected for each drug and investigational agent were based upon clinically achievable concentrations if the clinical Cmax of the agent was known.
Compounds. The drugs and investigational agents: alrizomadlin (APG-115; NSC831270), pelcitoclax (APG-1252; NSC835773), dasminapant (APG-1387;NSC834197), TAK-243 (NSC785004), copanlisib (NSC809693), olaparib (NSC753686), talazoparib (NSC767125), cobimetinib (NSC 768068), eltanexor (KPT-8602, NSC 794443), abemaciclib (NSC 768073), sotorasib (NSC818433), adagrasib (NSC 831453), MRTX-1133 (NSC 836407), Iadademestat (ORY1001, NSC 806812), and RMC-4630 (NSC839698), were obtained from the NCI Developmental Therapeutics Program Chemical Repository. The FDA-approved anticancer drug set is available from the Developmental Therapeutics Program at https://dtp.cancer.gov/organization/dscb/obtaining/available plates.htm. […] The stock solutions were prepared in dimethyl sulfoxide (DMSO, Sigma-Aldrich, St. Louis, MO, cat. D2650) at 800-fold the tested concentration and stored at -70 degrees C prior to their use. All drugs and investigational agents were tested over a range starting from a high concentration at or near the clinical Cmax and decreasing in half-log increments. If the clinical Cmax for an agent had not been determined, the highest concentration tested was 10 microM.
The patient-derived cancer (PDC) cell lines include five colon adenocarcinomas: 186277-243-T-J2-PDC, 616215-338-R-J1-PDC, 439559-082-T-J2-PDC, 463943-066-T-J2-PDC, and 519858-162-T-J1-PDC; three pancreatic carcinomas: 323965-272-R-J2-PDC, 521955-158-R6-J3-PDC, and 521955-158-R2-J5-PDC; two uterine sarcomas: 327498-152-R-J2-PDC and 993429-296-R-J1-PDC; two rhabdomyosarcomas: 755483-174-R-J1-PDC and 772245-204-R-J1-PDC; two soft tissue sarcomas: 126254-015-R-J1-PDC and 494315-158-R-J1-PDC; two malignant fibrous histiocytomas: 317291-083-R-J1-PDC and 596521-263-R-J1-PDC; two breast carcinomas: 171881-019-R-J1-PDC and 885512-296-R-J2-PDC; and one ovarian carcinoma: 6556581-035-R-J-PDC were obtained from the NCI PDMR, (https://pdmr.cancer.gov). The established cell lines HSSY-2 synovial sarcoma (RRID:CVCL 8719), SYO-1 synovial sarcoma (RRID:CVCL_7146), MPNST malignant peripheral neural sheath tumor were obtained from the Sloan Kettering Institute. The following established cell lines were purchased from the American Type Culture Collection (ATCC, Manassas, VA), Sor the received from the NCI repository:, PANC-1 pancreatic carcinoma (CRL-1469, RRID:CVCL_0480), OVCAR-5 ovarian carcinoma (RRID:CVCL_1628), OVCAR-8 ovarian carcinoma (RRID:CVCL_1629), , MCF-7 breast carcinoma (CRL-12584, RRID:CVCL_0031), MDA-MB-231 breast carcinoma (CRL-12532, RRID:CVCL_0062), NCI-H1876 small cell lung carcinoma (CRL-5902, RRID:CVCL_1503), NCI-H510A small cell lung carcinoma (HTB-184, RRID:CVCL_1565), NCI-H1417 (CRL-5869, RRID:CVCL_1469), and NCI-H196 small cell lung carcinoma (CRL-5823, RRID:CVCL_1509). Dr. Peter Houghton (Greehey Children's Cancer Research Institute, University of Texas Health Science Center, San Antonio, TX) provided Rh-18 rhabdomyosarcoma (RRID:CVCL_1659). Pooled donor human umbilical vein endothelial cells (HUVEC, Lonza, cat. CC-2519) and human mesenchymal stem cells (hMSC, Lonza, cat. PT-2501) were purchased from Lonza (Walkersville, MD).
Cell Culture. […]
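Further: spheroids exposed to agents for 7 days starting day 3 after seeding.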
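Wherever viability, T/C is given: percent of DMSO vehicle control viability with 100% = vehicle.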

## O=C(c1cc(Cc2n[nH]c(=O)c3ccccc23)ccc1F)N1CCN(C(=O)C2CC2)CC1 + CCN1C(C(=O)NC23CCC(C(=O)O)(CC2)CC3)C(c2cccc(Cl)c2F)C2(C(=O)Nc3cc(Cl)ccc32)C12CCCCC2
Second compound 0.03 µM
  IC50: > 10 µM
Second compound 0.0949 µM
  IC50: > 10 µM
Second compound 0.3 µM
  IC50: > 10 µM
Second compound 0.949 µM
  IC50: > 10 µM
Second compound 3 µM
  IC50: > 10 µM
Second compound 0.03 µM, first compound 0.0316 µM
  viability, T/C: 106%
Second compound 0.03 µM, first compound 0.1 µM
  viability, T/C: 103%
Second compound 0.03 µM, first compound 0.316 µM
  viability, T/C: 105%
Second compound 0.03 µM, first compound 1 µM
  viability, T/C: 87.5%
Second compound 0.03 µM, first compound 3.16 µM
  viability, T/C: 97.1%
Second compound 0.03 µM, first compound 10 µM
  viability, T/C: 87.8%
Second compound 0.0949 µM, first compound 0.0316 µM
  viability, T/C: 104%
Second compound 0.0949 µM, first compound 0.1 µM
  viability, T/C: 113%
Second compound 0.0949 µM, first compound 0.316 µM
  viability, T/C: 104%
Second compound 0.0949 µM, first compound 1 µM
  viability, T/C: 96.5%
Second compound 0.0949 µM, first compound 3.16 µM
  viability, T/C: 93.4%
Second compound 0.0949 µM, first compound 10 µM
  viability, T/C: 100%
Second compound 0.3 µM, first compound 0.0316 µM
  viability, T/C: 99.5%
Second compound 0.3 µM, first compound 0.1 µM
  viability, T/C: 112%
Second compound 0.3 µM, first compound 0.316 µM
  viability, T/C: 111%
Second compound 0.3 µM, first compound 1 µM
  viability, T/C: 85%
Second compound 0.3 µM, first compound 3.16 µM
  viability, T/C: 91%
Second compound 0.3 µM, first compound 10 µM
  viability, T/C: 94.9%
Second compound 0.949 µM, first compound 0.0316 µM
  viability, T/C: 109%
Second compound 0.949 µM, first compound 0.1 µM
  viability, T/C: 107%
Second compound 0.949 µM, first compound 0.316 µM
  viability, T/C: 113%
Second compound 0.949 µM, first compound 1 µM
  viability, T/C: 89.6%
Second compound 0.949 µM, first compound 3.16 µM
  viability, T/C: 90.4%
Second compound 0.949 µM, first compound 10 µM
  viability, T/C: 94.9%
Second compound 3 µM, first compound 0.0316 µM
  viability, T/C: 90.5%
Second compound 3 µM, first compound 0.1 µM
  viability, T/C: 100%
Second compound 3 µM, first compound 0.316 µM
  viability, T/C: 104%
Second compound 3 µM, first compound 1 µM
  viability, T/C: 86.7%
Second compound 3 µM, first compound 3.16 µM
  viability, T/C: 88.6%
Second compound 3 µM, first compound 10 µM
  viability, T/C: 88.8%
